Data reported in PMC11773557, “NADPH-Independent Fluorescent Probe for Live-Cell Imaging of Heme Oxygenase-1” (ACS Sensors, 2025).
Values belong to the molecule of their own block, whether it stands above or below them. Where a SMILES comes first, the peptide text is derived from it. The star is where a group is joined. NBD = O=[N+]([O-])c1ccc(*)c2nonc12; Ahx = NCCCCCC(=O)O

Key:
[1] = target: T1, recombinant HO-1 protein with a 6xHis tag (Homo sapiens, UniProt P09601); assay: Luminescence titration of NBD-Pn with HO-1; format: binding; settings: 4.5 μM HO-1, 2 μM probe, pH 7.4 PBS, λex = 475 nm; for increase in fluorescence intensity on addition of HO-1: emission at 526 nm, measured within 1 min
T1 construct: 6xHis
T1 sequence (P09601 1-288): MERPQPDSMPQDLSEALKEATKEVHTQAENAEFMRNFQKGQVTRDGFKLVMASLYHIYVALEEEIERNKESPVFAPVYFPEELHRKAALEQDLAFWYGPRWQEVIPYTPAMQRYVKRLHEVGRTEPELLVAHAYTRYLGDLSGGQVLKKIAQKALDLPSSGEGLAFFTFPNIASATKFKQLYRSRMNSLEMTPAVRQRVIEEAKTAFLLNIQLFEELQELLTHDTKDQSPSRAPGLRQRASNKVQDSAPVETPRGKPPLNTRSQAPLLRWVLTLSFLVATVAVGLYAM
Method: (§1) 4. Photophysical measurements
(§2) All spectra were measured using a stock solution of the probes (1 mM in DMSO) which was diluted with pH 7.4 PBS buffer to the desired concentration. […]
All measurements were conducted using a 700 μL quartz cuvette and within a minute after addition of the analyte. […]

[2] = target: human serum albumin (HSA) (Homo sapiens, UniProt P02768); assay: Selectivity assay, emission with HSA; format: binding; settings: 4.5 μM HSA, 2 μM probe, pH 7.4 PBS, emission at 526 nm
Chain of human serum albumin (HSA) (P02768 25-609): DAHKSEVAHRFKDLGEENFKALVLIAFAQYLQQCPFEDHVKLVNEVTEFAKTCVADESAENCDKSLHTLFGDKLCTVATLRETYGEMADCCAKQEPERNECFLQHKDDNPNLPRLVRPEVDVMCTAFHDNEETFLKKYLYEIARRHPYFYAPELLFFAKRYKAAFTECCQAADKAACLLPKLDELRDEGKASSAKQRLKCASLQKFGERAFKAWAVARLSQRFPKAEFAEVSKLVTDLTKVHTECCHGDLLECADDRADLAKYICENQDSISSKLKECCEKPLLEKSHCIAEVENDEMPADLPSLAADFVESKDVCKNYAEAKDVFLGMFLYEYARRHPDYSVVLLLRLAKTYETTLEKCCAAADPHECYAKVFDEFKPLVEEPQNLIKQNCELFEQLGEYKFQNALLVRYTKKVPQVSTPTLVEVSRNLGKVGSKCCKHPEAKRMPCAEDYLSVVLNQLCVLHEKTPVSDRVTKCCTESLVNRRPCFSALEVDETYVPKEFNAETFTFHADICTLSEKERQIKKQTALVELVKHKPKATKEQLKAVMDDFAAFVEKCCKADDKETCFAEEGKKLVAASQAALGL
Method: as §1, §2
(§3) Selectivity assay was performed by measuring emission of NBD-Pn in pH 7.4 PBS buffer in presence of varying analytes including HO-1, common proteins, amino acids, and biologically relevant ions. All measurements were conducted using a 700 μL quartz cuvette and within a minute after addition of the analyte. […]

[3] = target: bovine serum albumin (BSA) (Bos taurus, UniProt P02769); assay: Selectivity assay, emission with BSA; format: binding; settings: 4.5 μM BSA, 2 μM probe, pH 7.4 PBS, emission at 526 nm
Chain of bovine serum albumin (BSA) (P02769 25-607): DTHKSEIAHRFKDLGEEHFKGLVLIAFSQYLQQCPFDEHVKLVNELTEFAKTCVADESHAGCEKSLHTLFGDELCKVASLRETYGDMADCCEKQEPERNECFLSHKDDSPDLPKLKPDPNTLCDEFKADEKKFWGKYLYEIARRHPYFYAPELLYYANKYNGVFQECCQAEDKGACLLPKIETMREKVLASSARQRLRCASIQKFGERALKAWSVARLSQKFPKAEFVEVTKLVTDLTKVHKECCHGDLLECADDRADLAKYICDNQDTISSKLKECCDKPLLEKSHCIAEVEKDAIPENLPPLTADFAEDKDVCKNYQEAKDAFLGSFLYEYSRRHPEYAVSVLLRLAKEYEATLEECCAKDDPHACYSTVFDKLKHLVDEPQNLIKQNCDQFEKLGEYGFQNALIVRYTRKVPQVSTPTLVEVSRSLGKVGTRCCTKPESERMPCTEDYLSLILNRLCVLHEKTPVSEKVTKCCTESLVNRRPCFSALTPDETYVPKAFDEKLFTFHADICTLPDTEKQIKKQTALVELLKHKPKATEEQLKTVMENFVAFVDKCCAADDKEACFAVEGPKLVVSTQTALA
Method: as §1, §2, §3

A549 cells [4] = assay: Flow cytometry analysis of cellular uptake; format: cell-based, human; settings: 10 μM, time course of 2.5 h
Method: (§4) 37°C for 24 h. Cells were treated with 50 μM hemin, 1 μM ZnPP or DMSO. […]
8. Flow cytometry analysis
A549 cells were first seeded into 12-well plates (1.0 × 10^5 cells/well) and incubated overnight to achieve adherence. Then, 10 μM NBD-P 5 was added, and incubated for different times. The cells were washed twice with cold PBS and harvested by trypsinization, followed by centrifugation (1500 x g, 5.0 min). The obtained cells were re-suspended in PBS and analyzed using flow cytometry (BD […]
(§5) 37°C for 24 h. Cells were treated with 50 μM hemin, 1 μM ZnPP or DMSO. After 24 h incubation, 10 μM NBD-P 5 was added and incubated with the cells for 2 h. The cells were then fixed with 4% polyoxymethylene for 20 min. Afterwards, the nuclei were stained using DAPI for 20 min. […]

A549 cells [5] = assay: Colocalization experiment with organelle trackers; format: cell-based, human; settings: 10 μM probe 2 h
Method: 10. Colocalization experiment
A549 cells (8×10^3 cells per well) were seeded into confocal dish and incubated in a CO2 incubator at 37°C for 24 h. After incubation with NBD-P5 (10 μM) for 2 h, cells were co-stained with ER-Tracker red (400 nM) for 20 min, Lyso-Tracker red (60 nM) for 30 min, or Mito-Tracker red (50 nM) for 30 min. Fluorescence images were measured by ZEISS LSM 980 with Airyscan 2 confocal laser scanning

[6] = tested on: HO-1 expression in A549 cells; assay: HO-1 ELISA of treated A549 cells; format: cell-based, human; settings: 24 h, HO-1 ELISA kit, versus DMSO control
Method: 7. Enzyme linked immunosorbent assay (ELISA)
A549 cells (8×10^3 cells per well) were seeded in 6-well plates and incubated in a CO2 incubator at 37°C for 24 h. Cells were treated with 50 μM hemin, 1 μM ZnPP or DMSO. After 24 h incubation, cells were washed with PBS, lysed with NP-40 buffer containing 1.0 mM PMSF, followed by centrifugation (12000 rpm, 5 min) to harvest the supernatant. The assay was carried out by strictly following instructions provided. Absorbance at 450 nm was recorded using the BioTek Synergy-2 Microplate Reader to calculate the HO-1 concentration under different treatments. […]
as §5

[7] = tested on: HO-1 levels in live A549 cells; assay: Fluorescence imaging of HO-1 levels with NBD-P5 in treated A549 cells; format: cell-based, human; settings: A549 cells pretreated 24 h (hemin 50 μM, ZnPP 1 μM), then NBD-P5 10 μM 2 h, confocal imaging
Method: as §4
A549 cells (8×10^3 cells per well) were seeded into confocal dish and incubated in a CO2 incubator at 37°C for 24 h. Cells were treated with 50 μM hemin, 1 μM ZnPP or DMSO. After 24 h incubation, 10 μM NBD-P 5 was added and incubated with the cells for 2 h. The cells were then fixed with 4% polyoxymethylene for 20 min. Afterwards, the nuclei were stained using DAPI for 20 min.
Fluorescence images were measured by ZEISS LSM 980 with Airyscan 2 confocal laser scanning

HO-1 expression = settings: study by Fang and co-workers; cited from earlier work
NBD-P5 = target: T2, NBD-P5; assay: other fluorescence titration; emission of the NBD probe (2 uM, ex 475 nm, read at 526 nm) on addition of protein in solution (HO-1 in increasing concentrations up to 4.5 uM; HSA, BSA at 4.5 uM); measured within a minute after addition; settings: both partners purified
T2 construct: also called YWFYR-CONH2; NBD-Pn (n = 5); source: synthetic peptide, NBD-Ahx coupled with PyBOP, TFA cleavage, reversed-phase HPLC
T2 peptide: {NBD-Ahx}-YWFYR-NH2

NBD-P4 = target: T3, NBD-P4; assay: as above; settings: both partners purified
T3 construct: caveolin-1 residues Y97-Y100 (the pentapeptide without arginine 101); also called YWFY-CONH2; NBD-Pn (n = 4); source: synthetic peptide, NBD-Ahx coupled with PyBOP, TFA cleavage, reversed-phase HPLC
T3 peptide: {NBD-Ahx}-YWFY-NH2

Molecule: NC(=O)[C@H](Cc1ccc(O)cc1)NC(=O)[C@H](Cc1ccccc1)NC(=O)[C@H](Cc1c[nH]c2ccccc12)NC(=O)[C@H](Cc1ccc(O)cc1)NC(=O)CCCCCNc1ccc([N+](=O)[O-])c2nonc12 [NBD-P4] (HELM PEPTIDE1{[O=[N+]([O-])c1ccc([*:2])c2nonc12].[O=C(CCCCCN[*:1])[*:2]].Y.W.F.Y.[am]}$$$$V2.0)
- increase in fluorescence intensity on addition of HO-1 [1]: 6 fold

Molecule: N=C(N)NCCC[C@H](NC(=O)[C@H](Cc1ccc(O)cc1)NC(=O)[C@H](Cc1ccccc1)NC(=O)[C@H](Cc1c[nH]c2ccccc12)NC(=O)[C@H](Cc1ccc(O)cc1)NC(=O)CCCCCNc1ccc([N+](=O)[O-])c2nonc12)C(N)=O [NBD-P5] (HELM PEPTIDE1{[O=[N+]([O-])c1ccc([*:2])c2nonc12].[O=C(CCCCCN[*:1])[*:2]].Y.W.F.Y.R.[am]}$$$$V2.0)
- blue shift in fluorescence wavelength maxima on addition of HO-1 [1]: 24 nm
- increase in fluorescence intensity on addition of HO-1 [1]: 9 fold
- fluorescence change on addition of HSA [2]: small fluorescence increase
- fluorescence change on addition of BSA [3]: small fluorescence increase
- uptake by A549 cells (A549 cells [4]): increased rapidly in the first 1 h
- Pearson's correlation coefficient with ER-Tracker red (A549 cells [5]; ER-Tracker red 400 nM 20 min, ImageJ): 0.97
- colocalization with either Lyso-Tracker or Mito-Tracker (A549 cells [5]; Lyso-Tracker red 60 nM or Mito-Tracker red 50 nM 30 min): not as significant as that with ER-Tracker

Molecule: C=CC1=C(C)c2cc3[n-]c(cc4[n-]c(cc5nc(cc1n2)C(C)=C5C=C)c(C)c4CCC(=O)O)c(CCC(=O)O)c3C.[Zn+2] [ZnPP, zinc(II) protoporphyrin]
- HO-1 level relative to DMSO control ([6]; 1 μM): 0.89 fold
- NBD-P5 fluorescence in treated cells compared with control cells [7]: relatively weaker fluorescence signal

Molecule: CC(C)(C)c1cc(O)ccc1O [tBHQ]
- upregulation of HO-1 (HO-1 expression): about 1.6 fold

Molecule: hemin
- upregulation of HO-1 expression ([6]; 50 μM): around 1.53 fold
- NBD-P5 fluorescence in treated cells compared with control cells [7]: significantly stronger green fluorescence

- fold increase in fluorescence intensity of the probe with 4.5 uM HO-1 (NBD-P5): 9 fold
- fold increase in fluorescence intensity of the probe with HO-1 (NBD-P4): 6 fold
B1: Heme oxygenase-1 (enzyme)
chain: MERPQPDSMPQDLSEALKEATKEVHTQAENAEFMRNFQKGQVTRDGFKLVMASLYHIYVALEEEIERNKESPVFAPVYFPEELHRKAALEQDLAFWYGPRWQEVIPYTPAMQRYVKRLHEVGRTEPELLVAHAYTRYLGDLSGGQVLKKIAQKALDLPSSGEGLAFFTFPNIASATKFKQLYRSRMNSLEMTPAVRQRVIEEAKTAFLLNIQLFEELQELLTHDTKDQSPSRAPGLRQRASNKVQDSAPVETPRGKPPLNTRSQAPLLRWVLTLSFLVATVAVGLYAM
